Drawing on US5220064A, “Substituted 4'-hydroxyphenylacetic acid derivatives having antiinflammatory and analgesic activity” (Warner-Lambert Company, priority 1989, dated 1993), this text covers ED50 for three compounds.

In the test the test system is mice. Put plainly: acetic acid-induced stretching/writhing test in mice (based on Koster et al.). In kind it is in vivo. Particulars: Mus musculus, sc; subcutaneous, 30 minutes before peritoneal acetic acid (100 mg/kg); mice fasted 24 hours; 15 minute observation; read-out: ED50 (amount producing the desired inhibition of stretching or "writhing" in 50 percent of a population). The text has this:
Illustrative examples of the activity for use as described above for the novel compounds of the present invention are shown as the compound of the noted examples described in the following material when administered in a test based on that of Koster et al. [Fed. Proc., Vol. 18 (1959), p. 412] in which the peritoneal injection of acetic acid to mice provokes repeated stretching and twisting movements which persist for more than six hours. Analgesics prevent or suppress these syndromes which are considered to be an exteriorization of a diffuse abdominal pain. A 1% solution of acetic acid in water is used at a dose of 0.01 ml/g or 100 mg/kg of acetic acid to release the syndrome.
The compound to be tested is subcutaneously administered 30 minutes before the acetic acid injection and the mice are fasted 24 hours before the start of the test. The stretching for the mice is observed and totaled for each mouse in a 15 minute observation period starting just after the acetic acid injection. The results are expressed as mg/kg which amount produces the desired inhibition of stretching or "writhing" in 50 percent of a population.
As a reminder, the ED50 is the dose at which the effect has come halfway, by size or by number of responders. In the case of `CCCCCCCCNC(=O)Cc1ccc(O)c(Cl)c1` [Example 1, Benzeneacetamide, 3-Chloro-4-hydroxy-N-octyl-], the 50% effective dose (ED50) came to 6.1 mg/kg.
Then `CCCCCCCCNC(=O)Cc1ccc(O)c(Br)c1` [Example 2, Benzeneacetamide, 3-Bromo-4-hydroxy-N-octyl-], with 2.5 mg/kg.
Then `CCCCCCCCNC(=O)Cc1ccc(O)c(F)c1` [Example 3, Benzeneacetamide, 3-Fluoro-4-hydroxy-N-octyl-], with 3.2 mg/kg.
